{"source": "patent US20170144985A1", "about": "“DIAMINOTRIAZINE COMPOUND USEFUL AS HERBICIDE” (BASF SE, priority 2014, published 2017)", "test_in_all_cases": "greenhouse pre-emergence herbicidal test", "key": {"AMARE": {"tested_on": "AMARE", "assay_type": "in vivo, Amaranthus retroflexus", "conditions": "application rate 0.5 kg/ha, scale from 0 to 100, AMARE", "excerpt": "(§1) The seeds of the test plants were sown separately for each species. For the pre-emergence treatment, the active ingredients, which had been suspended or emulsified in water, were applied directly after sowing by means of finely distributing nozzles. The containers were irrigated gently to promote germination and growth and subsequently covered with transparent plastic hoods until the plants had rooted. This cover caused uniform germination of the test plants, unless this had been impaired by the active ingredients. Depending on the species, the plants were kept at 10-25° C. or 20-35° C., respectively. The test period extended over 2 to 4 weeks. During this time, the plants were tended, and their response to the individual treatments was evaluated. Evaluation was carried out using a scale from 0 to 100. 100 means no emergence of the plants, or complete destruction of at least the aerial moieties, and 0 means no damage, or normal course of growth. A moderate herbicidal activity is given at values of at least 60, a good herbicidal activity is given at values of at least 70, and a very good herbicidal activity is given at values of at least 85. The plants used in the greenhouse experiments were of the following species: [table]"}, "ALOMY": {"tested_on": "ALOMY", "assay_type": "in vivo, Alopecurus myosuroides", "conditions": "application rate 0.5 kg/ha, scale from 0 to 100, ALOMY", "excerpt": "as §1"}, "APESV": {"tested_on": "APESV", "assay_type": "in vivo, Apera spica-venti", "conditions": "application rate 0.5 kg/ha, scale from 0 to 100, APESV", "excerpt": "as §1"}}}
{"compound": "Nc1nc(Nc2c(F)c(F)nc(F)c2F)nc(N2CCCC2)n1", "note": "[Example 1, 6-pyrrolidin-1-yl-N4-(2,3,5,6-tetrafluoro-4-pyridyl)-1,3,5-triazine-2,4-diamine]", "values": [{"measurement": "herbicidal activity", "setting": "AMARE", "value": "very good (a very good herbicidal activity is given at values of at least 85)"}, {"measurement": "herbicidal activity", "setting": "ALOMY", "value": "very good (a very good herbicidal activity is given at values of at least 85)"}, {"measurement": "herbicidal activity", "setting": "APESV", "value": "very good (a very good herbicidal activity is given at values of at least 85)"}]}
